The source of these data is PubChem BioAssay AID256 (DTP/NCI, 2004).

The assay relates to CD2F1 mice, L1210 leukemia ip, survival T/C. Nature of the assay: NCI In Vivo Anticancer Drug Screen. Data for tumor model L1210 Leukemia (intraperitoneal) in CD2F1 (CDF1) mice. Particulars: endpoint: mean survival time, higher = longer survival. The gist of the method:
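In this screen, transplantable tumors were grown in mice given either the compound or its vehicle. Results were expressed as the treated measurement relative to the control measurement.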

[1] abbreviates: dose: 100.0 mg/kg/injection, schedule: Q01DX001 (ip), vehicle: saline.
[2] abbreviates: dose: 25.0 mg/kg/injection, schedule: Q01DX009 (ip), vehicle: saline with Tween-80.
Setting [3] is: dose: 50.0 mg/kg/injection, schedule: Q01DX009 (ip), vehicle: saline with Tween-80.

Several values for one entry are separate records, joined by “and”; a condition that tells them apart may be missing. Identical values can stand only once. Toxic doses and inconclusive results are not listed.

On to `CC(=O)NC(CCC(=O)C=[N+]=N)C(=O)O` (stereo unspecified), for which the T/C reads like this: (dose: 0.01 mg/kg/injection, schedule: Q03HX016 (ip), vehicle: saline) 97 % of control; (dose: 0.03 mg/kg/injection, schedule: Q03HX008 (ip), vehicle: saline) 95 % of control; (dose: 0.04 mg/kg/injection, schedule: Q03HX016 (ip), vehicle: saline) 97 % of control; (dose: 0.06 mg/kg/injection, schedule: Q03HX008 (ip), vehicle: saline) 97 % of control; (dose: 0.06 mg/kg/injection, schedule: Q03HX016 (ip), vehicle: saline) 94 % of control; (dose: 0.13 mg/kg/injection, schedule: Q01DX005 (iv), vehicle: saline) 98 % of control. Besides, the T/C (dose: 0.13 mg/kg/injection, schedule: Q01DX009 (ip), vehicle: saline) was 103 % of control; the T/C (dose: 0.13 mg/kg/injection, schedule: Q01DX009 (oral), vehicle: saline) was 102 % of control; the T/C (dose: 0.13 mg/kg/injection, schedule: Q03HX008 (ip), vehicle: saline) is 104 % of control; the T/C (dose: 0.13 mg/kg/injection, schedule: Q03HX016 (ip), vehicle: saline) is 106 % of control; the T/C (dose: 0.13 mg/kg/injection, schedule: Q03HX024 (ip), vehicle: saline) is 90 % of control; the T/C (dose: 0.13 mg/kg/injection, schedule: Q04DX003 (ip), vehicle: saline) is 101 % of control. For the same compound, the T/C runs as follows: (dose: 0.13 mg/kg/injection, schedule: Q08DX002 (ip), vehicle: saline) 94 % of control; (dose: 0.25 mg/kg/injection, schedule: Q01DX001 (ip), vehicle: saline) 92 % of control; (dose: 0.25 mg/kg/injection, schedule: Q01DX001 (iv), vehicle: saline) 103 % of control; (dose: 0.25 mg/kg/injection, schedule: Q01DX005 (iv), vehicle: saline) 106 % of control; (dose: 0.25 mg/kg/injection, schedule: Q01DX009 (ip), vehicle: saline) 112 % of control; (dose: 0.25 mg/kg/injection, schedule: Q01DX009 (oral), vehicle: saline) 113 % of control. Also, the T/C is 115 % of control and 122 % of control (dose: 0.25 mg/kg/injection, schedule: Q03HX008 (ip), vehicle: saline); 100 % of control (dose: 0.25 mg/kg/injection, schedule: Q03HX024 (ip), vehicle: saline); 101 % of control (dose: 0.25 mg/kg/injection, schedule: Q04DX003 (ip), vehicle: saline); 97 % of control (dose: 0.25 mg/kg/injection, schedule: Q08DX002 (ip), vehicle: saline); 166 % of control (dose: 0.4 mg/kg/injection, schedule: Q01DX009 (ip), vehicle: water); 97 % of control (dose: 0.5 mg/kg/injection, schedule: Q01DX001 (ip), vehicle: saline). For the same compound, the T/C runs as follows: (dose: 0.5 mg/kg/injection, schedule: Q01DX001 (iv), vehicle: saline) 103 % of control; (dose: 0.5 mg/kg/injection, schedule: Q01DX005 (iv), vehicle: saline) 118 % of control; (dose: 0.5 mg/kg/injection, schedule: Q04DX003 (ip), vehicle: saline) 106 % of control; (dose: 0.5 mg/kg/injection, schedule: Q08DX002 (ip), vehicle: saline) 104 % of control; (dose: 0.8 mg/kg/injection, schedule: Q01DX009 (ip), vehicle: water) 115 % of control; (dose: 1.0 mg/kg/injection, schedule: Q01DX001 (ip), vehicle: saline) 106 % of control. Further, the T/C was 107 % of control (dose: 1.0 mg/kg/injection, schedule: Q01DX001 (iv), vehicle: saline); 110 % of control (dose: 1.0 mg/kg/injection, schedule: Q01DX001 (oral), vehicle: saline); 119 % of control (dose: 1.0 mg/kg/injection, schedule: Q01DX009 (ip), vehicle: saline); 115 % of control (dose: 1.0 mg/kg/injection, schedule: Q01DX009 (oral), vehicle: saline); 151 % of control (dose: 1.0 mg/kg/injection, schedule: Q03HX016 (ip), vehicle: saline); 181 % of control (dose: 1.0 mg/kg/injection, schedule: Q03HX024 (ip), vehicle: saline). For the same compound, the T/C (dose: 1.0 mg/kg/injection, schedule: Q04DX003 (ip), vehicle: saline) is 117 % of control; the T/C (dose: 1.0 mg/kg/injection, schedule: Q06HX012 (ip), vehicle: saline) is 158 % of control; the T/C (dose: 1.0 mg/kg/injection, schedule: Q08DX002 (ip), vehicle: saline) is 111 % of control; the T/C (dose: 2.0 mg/kg/injection, schedule: Q01DX001 (ip), vehicle: saline) was 104 % of control and 109 % of control; the T/C (dose: 2.0 mg/kg/injection, schedule: Q01DX001 (iv), vehicle: saline) was 107 % of control; the T/C (dose: 2.0 mg/kg/injection, schedule: Q01DX001 (oral), vehicle: saline) was 120 % of control. In addition, the T/C reads like this: (dose: 2.0 mg/kg/injection, schedule: Q01DX005 (ip), vehicle: saline) 109 % of control; (dose: 2.0 mg/kg/injection, schedule: Q01DX005 (iv), vehicle: saline) 120 % of control; (dose: 2.0 mg/kg/injection, schedule: Q03HX016 (ip), vehicle: saline) 152 % of control; (dose: 2.0 mg/kg/injection, schedule: Q03HX024 (ip), vehicle: saline) 108 % of control; (dose: 2.0 mg/kg/injection, schedule: Q04DX003 (ip), vehicle: saline) 121 % of control and 124 % of control; (dose: 2.0 mg/kg/injection, schedule: Q06HX008 (ip), vehicle: saline) 156 % of control. Also, the T/C runs as follows: (dose: 2.0 mg/kg/injection, schedule: Q06HX012 (ip), vehicle: saline) 151 % of control; (dose: 2.0 mg/kg/injection, schedule: Q08DX002 (ip), vehicle: saline) 113 % of control and 107 % of control; (dose: 4.0 mg/kg/injection, schedule: Q01DX001 (ip), vehicle: saline) 112 % of control; (dose: 4.0 mg/kg/injection, schedule: Q01DX001 (iv), vehicle: saline) 117 % of control; (dose: 4.0 mg/kg/injection, schedule: Q01DX001 (oral), vehicle: saline) 115 % of control; (dose: 4.0 mg/kg/injection, schedule: Q01DX005 (ip), vehicle: saline) 102 % of control. The T/C by setting is: (dose: 4.0 mg/kg/injection, schedule: Q06HX008 (ip), vehicle: saline) 152 % of control; (dose: 4.0 mg/kg/injection, schedule: Q06HX012 (ip), vehicle: saline) 113 % of control; (dose: 4.0 mg/kg/injection, schedule: Q08DX002 (ip), vehicle: saline) 111 % of control; (dose: 8.0 mg/kg/injection, schedule: Q01DX001 (ip), vehicle: saline) 116 % of control; (dose: 8.0 mg/kg/injection, schedule: Q01DX001 (oral), vehicle: saline) 116 % of control; (dose: 8.0 mg/kg/injection, schedule: Q08DX002 (ip), vehicle: saline) 114 % of control. Besides, the T/C (dose: 16.0 mg/kg/injection, schedule: Q04DX003 (ip), vehicle: saline) was 154 % of control.
In the case of `CCCCCCCCCCCC(CCCCCCC)c1ccc(C)cc1` (stereo unspecified), the T/C reads like this: under setting [1], 91 % of control; (dose: 200.0 mg/kg/injection, schedule: Q01DX001 (ip), vehicle: saline) 94 % of control; (dose: 400.0 mg/kg/injection, schedule: Q01DX001 (ip), vehicle: saline) 97 % of control.
Consider `Cc1nc2ccccc2cc1C[N+]12CN3CN(CN(C3)C1)C2`, for which the T/C is 106 % of control under setting [2]; 101 % of control (dose: 25.0 mg/kg/injection, schedule: Q04DX003 (ip), vehicle: saline with Tween-80); 113 % of control under setting [3]; 103 % of control (dose: 50.0 mg/kg/injection, schedule: Q04DX003 (ip), vehicle: saline with Tween-80); 109 % of control under setting [1].
With `CC1(C)CC([NH-])(C(=O)O)CC(C)(C)N1O.CC1(C)CC([NH-])(C(=O)O)CC(C)(C)N1O.[Zn+2]`, the T/C was 96 % of control (dose: 12.5 mg/kg/injection, schedule: Q01DX009 (ip), vehicle: saline with Tween-80); 96 % of control under setting [2]; 96 % of control under setting [3]; 93 % of control (dose: 100.0 mg/kg/injection, schedule: Q01DX009 (ip), vehicle: saline with Tween-80).
For the compound `Cc1cc(C)c(S(=O)(=O)Nc2cc(C)ccc2C)c(C)c1`, the T/C is, setting by setting: (dose: 100.0 mg/kg/injection, schedule: Q01DX001 (ip), vehicle: saline with Tween-80) 98 % of control; (dose: 200.0 mg/kg/injection, schedule: Q01DX001 (ip), vehicle: saline with Tween-80) 96 % of control; (dose: 400.0 mg/kg/injection, schedule: Q01DX001 (ip), vehicle: saline with Tween-80) 102 % of control.
